Data set [1] has as its system A549. Nature of the data set: Antiproliferative activity against human A549 cells assessed as inhibition of cell growth at 1 uM measured after 72 hrs by MTT assay relative to control. Format: functional.
Data set [2] concerns A549. Nature of the data set: Antiproliferative activity against human A549 cells assessed as inhibition of cell growth at 0.1 uM measured after 72 hrs by MTT assay relative to control. In kind it is functional. (Tetrazolium dyes change colour on reduction, which living cells bring about.)
Data set [3] has as its system A549. Nature of the data set: Antiproliferative activity against human A549 cells assessed as inhibition of cell growth at 0.01 uM measured after 72 hrs by MTT assay relative to control. In kind it is functional.
Data set [4] relates to A549. Nature of the data set: Antiproliferative activity against human A549 cells assessed as inhibition of cell growth measured after 72 hrs by MTT assay. As to conditions: A549, 72 h. In kind it is functional, cell-based.
A further data set deals with K562. Nature of the data set: Antiproliferative activity against human K562 cells assessed as inhibition of cell growth measured after 72 hrs by MTT assay. In kind it is functional, cell-based. As to conditions: K562, 72 h.
For a further data set, the system named is HepG2. The data set can be described thus: Antiproliferative activity against human HepG2 cells assessed as inhibition of cell growth measured after 72 hrs by MTT assay. In kind it is functional, cell-based. The conditions noted are these: HepG2, 72 h.
In a further data set the test system is MDA-MB-231. The data set can be described thus: Antiproliferative activity against human MDA-MB-231 cells assessed as inhibition of cell growth measured after 72 hrs by MTT assay. In kind it is functional, cell-based. The conditions noted are these: MDA-MB-231, 72 h.
Data set [5] in a line: Antiproliferative activity against human HFL1 cells assessed as inhibition of cell growth measured after 72 hrs by MTT assay. Format: toxicity, cell-based.
Data set [6] can be described thus: Metabolic stability in mouse liver microsomes assessed as intrinsic clearance at 100 uM measure upto 60 mins in presence of NADPH by LC-MS/MS analysis. Format: ADME, Microsome. As to conditions: 1 h. In general terms: Microsomes from liver hold many membrane-bound enzymes, among them those of drug oxidation.
The test system of the next data set is A549/TR. The data set can be described thus: Antiproliferative activity against human A549/Taxol cells assessed as inhibition of cell growth measured after 72 hrs by MTT assay. In kind it is functional, cell-based.
The nature of data set [7]: Resistance index, ratio of IC50 for antiproliferative activity against human A549/Taxol cells to IC50 for antiproliferative activity against human A549 cells. In kind it is functional.
A short description of data set [8]: Metabolic stability in mouse plasma assessed as compound remaining at 1 uM and measured at 3 hrs by LC-MS/MS analysis. In kind it is ADME, cell-free. The conditions noted are these: read-out: Stability.
Data set [9] can be described thus: Aqueous solubility of the compound by HPLC analysis. In kind it is physicochemical. The conditions noted are these: aqueous (not further specified).
Data set [10] can be described thus: Metabolic stability in mouse plasma assessed as half life at 1 uM and measured upto 3 hrs by LC-MS/MS analysis. Format: ADME, cell-free.
Data set [11] can be described thus: Metabolic stability in mouse liver microsomes assessed as half life at 100 uM measure upto 60 mins in presence of NADPH by LC-MS/MS analysis. In kind it is ADME, Microsome.
Another data set relates to H22. Nature of the data set: Antitumor activity against mouse H22 cells allografted in mouse model assessed as tumor growth inhibition at 20 mg/kg,iv administered once daily for 3 weeks relative to control. Format: functional. The conditions noted are these: H22, 504 h, read-out: TGI.

Data on 14 compounds can be found in ChEMBL document CHEMBL5634150, “Design, synthesis and biological evaluation of novel dihydroquinolin-4(1H)-one derivatives as novel tubulin polymerization inhibitors” (Eur J Med Chem, 2023).

In brackets after ≈: the same amount, converted by molar mass.

Take `COc1ccc(N2CCC(=O)c3c2cc(OC)c(OC)c3OC)cc1O`: in the data set with A549 [1], the inhibition (usually the change of the read-out against control, counted positive when it falls) at 1 µM was determined as 68.4%. The inhibition at 0.1 µM in the data set with A549 [2] worked out at 68.3%. Besides, the inhibition at 0.01 µM in the data set on A549 [3] was determined as 43.9%. The IC50 – broadly, the concentration that gives 50% inhibition – with A549 [4] amounted to 34 nM; in the data set with K562, 30 nM; with HepG2, 32 nM; in the data set with MDA-MB-231, 96 nM. Besides, in data set [5], the IC50 at 72 h came out at 284 nM.

Turning to `COc1cc2c(c(OC)c1OC)C(=O)CCN2c1ccc2ccn(C)c2c1`, in the data set with A549 [1], the inhibition at 1 µM turned out to be 61%. For the same compound, the inhibition at 0.1 µM with A549 [2] turned out to be 53.4%. Also, in the data set on A549 [3], the inhibition at 0.01 µM worked out at 13.2%. Also, the IC50 with A549 [4] turned out to be 170 nM; in the data set with K562, 147 nM; with HepG2 it was 648 nM; with MDA-MB-231, 1140 nM. Further, the concentration for half-maximal inhibition (IC50) at 72 h in data set [5] came to 2760 nM.

Take `COc1ccc(N2CCCc3c2cc(OC)c(OC)c3OC)cc1O`: in the data set on A549 [1], the inhibition at 1 µM was found to be 81%. Also, the inhibition at 0.1 µM with A549 [2] was 45%. For the same compound, the inhibition at 0.01 µM in the data set on A549 [3] came to 35%. Besides, the IC50 with A549 [4] worked out at 276 nM; in the data set with K562 it was 297 nM; with HepG2 it was 668 nM; in the data set with MDA-MB-231 it was 1060 nM. Besides, the IC50 at 72 h in [5] came to 2660 nM.

As for `COc1cc2c(c(OC)c1OC)C(=O)CCN2c1ccc2cc[nH]c2c1`, in the data set with A549 [1], the inhibition at 1 µM worked out at 71.1%. Besides, the inhibition at 0.1 µM in the data set on A549 [2] was determined as 38.2%. Further, the inhibition at 0.01 µM with A549 [3] was found to be 22.4%. Further, the IC50 is 288 nM in the data set on A549 [4], 902 nM in the data set with K562, 2310 nM in the data set on HepG2 and 2890 nM with MDA-MB-231. Moreover, in data set [5], the IC50 at 72 h is 9750 nM.

`COc1cc2c(c(OC)c1OC)C(=O)CCN2c1ccc2[nH]ccc2c1`: the inhibition at 1 µM with A549 [1] was determined as 72%. Moreover, in the data set with A549 [2], the inhibition at 0.1 µM stood at 69%. For the same compound, the inhibition at 0.01 µM in the data set on A549 [3] came to 30.1%. For the same compound, the IC50 with A549 [4] was 305 nM; in the data set with K562, 182 nM; in the data set on HepG2, 855 nM; in the data set on MDA-MB-231, 912 nM. Besides, the IC50 at 72 h in [5] worked out at 2980 nM.

As for `COc1cc2c(c(OC)c1OC)C(=O)CCN2c1ccc2c(c1)OCCO2`, in the data set with A549 [1], the inhibition at 1 µM stood at 72.4%. In the data set with A549 [2], the inhibition at 0.1 µM amounted to 44.9%. Also, the inhibition at 0.01 µM in the data set on A549 [3] is 35.6%. For the same compound, the IC50 with A549 [4] amounted to 216 nM; with K562, 81 nM; in the data set on HepG2, 163 nM; in the data set on MDA-MB-231 it was 237 nM. The IC50 at 72 h in [5] came out at 303 nM.

Take `C[C@]12CC[C@H]3[C@@H](CCC4=CC(=O)CC[C@@]43C)[C@@H]1CC[C@@H]2O` [TESTOSTERONE]: in [6], the CLH is 0.436 mL/min/mg.

On to `CC(=O)O[C@H]1C(=O)[C@@]2(C)[C@H]([C@H](OC(=O)c3ccccc3)[C@]3(O)C[C@H](OC(=O)[C@H](O)[C@@H](NC(=O)c4ccccc4)c4ccccc4)C(C)=C1C3(C)C)[C@]1(OC(C)=O)CO[C@@H]1C[C@@H]2O` [PACLITAXEL], for which the results for the IC50 in the data set with A549 [4] and in the data set with A549/TR were 22 nM and 602 nM, respectively. Besides, the “Ratio IC50” value in data set [7] was 27.36.

On to `COc1cc2c(c(OC)c1OC)C(=O)CCN2c1ccc2c(ccn2C)c1`, for which the inhibition at 1 µM with A549 [1] worked out at 79.2%. The inhibition at 0.1 µM in the data set with A549 [2] came to 78.6%. The inhibition at 0.01 µM with A549 [3] turned out to be 54.3%. For the same compound, the half-maximal inhibitory concentration (IC50) in the data set on A549 [4] was 11 nM; in the data set on K562, 25 nM; in the data set with HepG2 it was 72 nM; in the data set on MDA-MB-231, 102 nM. For the same compound, the IC50 at 72 h in [5] was 102 nM.

Regarding `COc1ccc(N2CCC(=O)c3c2cc(OC)c(OC)c3OC)cc1`, the inhibition at 1 µM with A549 [1] is 74.5%. Also, in the data set with A549 [2], the inhibition at 0.1 µM is 69.3%. Also, in the data set with A549 [3], the inhibition at 0.01 µM came to 34%. Besides, the IC50 in the data set on A549 [4] stood at 72 nM; with K562 it was 34 nM; with HepG2, 77 nM; in the data set on MDA-MB-231, 107 nM. Also, the IC50 at 72 h in [5] is 370 nM.

On to `COc1ccc(N2CCC(=O)c3cc(OC)c(OC)cc32)cc1O`, for which the inhibition at 1 µM in the data set with A549 [1] was 73.3%. For the same compound, in the data set with A549 [2], the inhibition at 0.1 µM stood at 44.2%. In addition, the inhibition at 0.01 µM with A549 [3] is 20.4%. Moreover, the IC50 in the data set with A549 [4] stood at 280 nM; in the data set on K562 it was 226 nM; in the data set with HepG2, 672 nM; in the data set on MDA-MB-231, 902 nM. Moreover, in data set [5], the IC50 at 72 h was 3300 nM.

For the compound `CC(=O)Oc1ccc(C(c2ccc(OC(C)=O)cc2)c2ccccn2)cc1` [BISACODYL], the remaining at 3 h, 1 µM in [8] was 0.003%.

Regarding `COc1ccc(/C=C\c2cc(OC)c(OC)c(OC)c2)cc1O` [COMBRETASTATIN A4], the remaining at 3 h, 1 µM in [8] came out at 97.8%. The inhibition at 1 µM with A549 [1] is 78.4%. Besides, in the data set with A549 [2], the inhibition at 0.1 µM stood at 76.2%. In the data set on A549 [3], the inhibition at 0.01 µM was determined as 76.9%. Besides, the IC50 in the data set on A549 [4] came to 11 nM; in the data set on K562 it was 4 nM; with HepG2, 33 nM; with MDA-MB-231, 20 nM; in the data set on A549/TR, 76 nM. Also, the IC50 at 72 h in data set [5] is 91 nM. Moreover, the concentration in solution in data set [9] (solubility) was 0.96 µg/mL (≈ 3.03 µM). In addition, the half-life (as a rule, the time needed for the level to fall by half in the phase considered) at 1 µM in data set [10] is above 180 min. Also, the half-life at 100 µM in data set [11] was below 5 min. Also, the CLH in [6] is above 0.277 mL/min/mg. Besides, in the data set with H22, the inhibition in vivo at 20 mg/kg came to 59.2%.

Turning to `COc1cc2c(c(OC)c1OC)C(=O)CCN2c1cccc2c1ccn2C`, in the data set with A549 [1], the inhibition at 1 µM worked out at 74.2%. Also, in the data set on A549 [2], the inhibition at 0.1 µM was 56%. For the same compound, in the data set on A549 [3], the inhibition at 0.01 µM was found to be 19.2%. The IC50 in the data set on A549 [4] amounted to 63 nM; in the data set with K562, 7 nM; with HepG2 it was 21 nM; in the data set with MDA-MB-231, 33 nM. For the same compound, the IC50 at 72 h in [5] is 99 nM.
